Data published in patent publication US8835511B2, “Absorbent articles including an odor control system” (The Procter & Gamble Company, priority 2007, dated 2014).

Key:
[1] = Odor unpleasantness of samples exposed to malodorant solution, evaluated by a panel of expert graders; conditions: % relative unpleasantness vs. reference (malodorant solution = 100); 10 ml of 0.1% aqueous ammonia; 16 mg total odor control material; five expert graders, 4 replicates, 25° C.
Description: For proving the synergistic effect on odor reduction several test samples are prepared by exposing them to a 0.1% aqueous solution of ammonia, which serves as a test malodorous substance. The first data point in table 2 serves as a benchmark as it represents the degree of unpleasantness of the ammonia solution without added odor control material. Data points 2-3 in table 2 are illustrating the malodor-reducing activity of two exemplary odor control materials alone, specifically alpha-amylcinnamaldehyde as exemplary aldehyde and menthyl acetate as an exemplary odor control material acting on the nose receptors. The last data point 4 in table 2 is illustrating the activity of the odor control system of the present invention. For comparability, two individual odor control materials were mixed at half their amount compared to data points 2-3. Data point 4 was obtained by testing a mixture of alpha-Amylcinnamaldehyde and menthyl acetate. […] Thus, synergistic odor control activity has been proven. Further, odor unpleasantness and pleasantness of these samples was evaluated by a panel of expert graders. In particular, five different expert graders evaluated 4 replicates for each sample. Odor unpleasantness was evaluated by using a scale from −10 to +0, where—10 indicates the max odor unpleasantness, 0 indicates no odor. […]

[2] = Thermogravimetric analysis (TGA), weight loss over time at 40° C.; format: physicochemical; conditions: samples kept at 40° C. for 180 minutes, mixture = menthyl acetate (10%) + silica gel (ex Grace, coded 123)
Description: The stabilization effect has been proven by running a Thermogravimetric analysis (TGA) on samples of narrow silica gel treated with 10 weight-% of menthyl acetate. Specifically, the method is based on evaluation of weight loss over time at specific temperature (40° C.). The samples were kept at 40° C. for 180 minutes. In order to have a basis for comparison the TGA analysis was performed on a sample of pure menthyl acetate and a sample of pure silica gel as references together with a sample of menthyl acetate (10%)+silica gel (ex Grace, coded 123).

Compound	Odor unpleasantness [1] [%]	Weight Loss [2] [%]
CCCCCC(C=O)=Cc1ccccc1 [Alpha-Amylcinnamaldehyde, alpha-amylcinnamaldehyde]	64	
CC(=O)OC1CC(C)CCC1C(C)C (stereo not drawn) [Menthyl acetate, menthyl acetate]	46	~100
